Measurements as given in EP4725957A1, “GROUP OF CYCLIC ALKALINE LIPOPEPTIDE COMPOUNDS, AND PREPARATION METHOD THEREFOR AND USE THEREOF” (Institute of Medicinal Biotechnology, Chinese Academy of …, priority 2023, dated 2024).
Converted amounts (≈) assume the structure as drawn. Bridge positions count the residues as written; N and C are the ends. Square brackets hold non-standard residues; d marks the D form. Peptide text beside a SMILES is read from it. * marks the point of attachment. Heptanoyl(6-Me) = CC(C)CCCCC(=O)*; Sulfomethyl = O=S(=O)(O)C*; dOrn = NCCC[C@@H](N)C(=O)O; Nonanoyl = CCCCCCCCC(=O)*; X1 = CC[C@H](C)CCCCC(=O)*; dDab = NCC[C@@H](N)C(=O)O; dDap = NC[C@@H](N)C(=O)O; Dab = NCC[C@H](N)C(=O)O; Dap = NC[C@H](N)C(=O)O

What was measured:
Assay type in all cases: cell-based
[1] = Nephrotoxicity assay: in vitro cytotoxicity of HK-2 cells by CCK-8 assay; conditions: human, HK-2 cells (human renal), 72 h incubation with drug-containing medium
How it was run: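 Compounds in sterile water, diluted to final 500, 250, 200, 100, 50, 25 and 12.5 µg/mL, were applied for 72 h to human HK-2 kidney cells. Absorbance at 450 nm after 3 h CCK-8 gave viability against untreated wells, and IC50 came from logarithmic regression; three replicates.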

[2] = tested on: Klebsiella pneumoniae KPN+19-15; conditions: KPN+19-15
How it was run: (§1)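 Per CLSI, bacteria at a final (2-4) × 10^5 CFU/mL were exposed in Mueller-Hinton broth to two-fold compound series (final 64 down to 0.03 mg/L). MIC read after 16-20 h at 35-37°C in sealed plates.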

[3] = tested on: Pseudomonas aeruginosa PAE19-3; conditions: PAE19-3
How it was run: as §1

[4] = tested on: Escherichia coli ATCC BAA-2523; conditions: ATCC BAA-2523
How it was run: as §1

[5] = tested on: Escherichia coli ATCC BAA-2340 (KPC); conditions: ATCC BAA-2340
How it was run: as §1

[6] = tested on: Acinetobacter baumannii NCTC 13304 (OXA-27); conditions: NCTC 13304
How it was run: as §1

[7] = tested on: Klebsiella pneumoniae ATCC BAA-1705 (KPC); conditions: ATCC BAA-1705
How it was run: as §1

[8] = tested on: Acinetobacter baumannii ABA19-1; conditions: ABA19-1
How it was run: as §1

[9] = tested on: Pseudomonas aeruginosa ATCC 27853; conditions: ATCC 27853
How it was run: as §1

Structure (SMILES) | IC50 at 72 h [1] [µg/mL] | MIC [2] [µg/mL] | MIC [3] [µg/mL] | MIC [4] [µg/mL] | MIC [5] [µg/mL] | MIC [6] [µg/mL] | MIC [7] [µg/mL] | MIC [8] [µg/mL] | MIC [9] [µg/mL]
CC[C@H](C)CCCCC(=O)N[C@@H](CCN)C(=O)N[C@H](C(=O)N[C@H](CCCN)C(=O)N[C@H]1CCNC(=O)[C@H]([C@@H](C)O)NC(=O)[C@H](CCN)NC(=O)[C@H](CCN)NC(=O)[C@H]([C@@H](C)O)NC(=O)[C@@H](Cc2ccccc2)NC(=O)[C@H](CCN)NC1=O)[C@@H](C)O [Compound 21, (S)-6-methyloctanoyl-Dab-Thr-D-Orn-ring(4-10)[Dab-Dab-D-Phe-Thr-Dab-Dab-Thr]] (X1-[Dab]T[dOrn][Dab][Dab][dF]T[Dab][Dab]T; lactam 4-C) | > 500 | 0.125 (≈ 0.104 µM) | 1 (≈ 0.83 µM) | ≤0.03 | ≤0.03 | 0.06 (≈ 0.0498 µM) | 0.06 (≈ 0.0498 µM) | 0.125 (≈ 0.104 µM) | 0.25 (≈ 0.207 µM)
CCCCCCCCC(=O)N[C@@H](CCN)C(=O)N[C@H](C(=O)N[C@H](CN)C(=O)N[C@H]1CCNC(=O)[C@H]([C@@H](C)O)NC(=O)[C@H](CCN)NC(=O)[C@H](CCN)NC(=O)[C@H](CC(C)C)NC(=O)[C@@H](Cc2ccccc2)NC(=O)[C@H](CCN)NC1=O)[C@@H](C)O [Compound 35, Nonanoyl-Dab-Thr-D-Dap-ring(4-10)[Dab-Dab-D-Phe-Leu-Dab-Dab-Thr]] (Nonanoyl-[Dab]T[dDap][Dab][Dab][dF]L[Dab][Dab]T; lactam 4-C) | 138 ± 8.3 (≈ 116 µM) | 0.06 (≈ 0.0504 µM) | 0.5 (≈ 0.42 µM) | 0.06 (≈ 0.0504 µM) | 0.06 (≈ 0.0504 µM) | 0.06 (≈ 0.0504 µM) | 0.06 (≈ 0.0504 µM) | 0.06 (≈ 0.0504 µM) | 0.06 (≈ 0.0504 µM)
CC(C)CCCCC(=O)N[C@@H](CCN)C(=O)N[C@H](C(=O)N[C@H](COCS(=O)(=O)O)C(=O)N[C@H]1CCNC(=O)[C@H]([C@@H](C)O)NC(=O)[C@H](CCN)NC(=O)[C@H](CCN)NC(=O)[C@H]([C@@H](C)O)NC(=O)[C@@H](Cc2ccccc2)NC(=O)[C@H](CCN)NC1=O)[C@@H](C)O [Compound 103, 6-methylheptanoyl-Dab-Thr-D-Ser(CH2SO3H)-ring(4-10)[Dab-Dab-D-Phe-Thr-Dab-Dab-Thr]] ({Heptanoyl(6-Me)}-[Dab]T[dS](Sulfomethyl)[Dab][Dab][dF]T[Dab][Dab]T; lactam 4-C) | > 500 | 0.125 (≈ 0.0993 µM) | 0.25 (≈ 0.199 µM) | 0.03 (≈ 0.0238 µM) | 0.03 (≈ 0.0238 µM) | 0.06 (≈ 0.0477 µM) | 0.125 (≈ 0.0993 µM) | 0.06 (≈ 0.0477 µM) | 0.25 (≈ 0.199 µM)
CC(C)CCCCC(=O)N[C@@H](CN)C(=O)N[C@H](C(=O)N[C@H](CCN)C(=O)N[C@H]1CCNC(=O)[C@H]([C@@H](C)O)NC(=O)[C@H](CCN)NC(=O)[C@H](CCN)NC(=O)[C@H](CC(C)C)NC(=O)[C@@H](CC(C)C)NC(=O)[C@H](CCN)NC1=O)[C@@H](C)O [Compound 97, 6-methylheptanoyl-Dap-Thr-D-Dab-ring(4-10)[Dab-Dab-D-Leu-Leu-Dab-Dab-Thr]] ({Heptanoyl(6-Me)}-[Dap]T[dDab][Dab][Dab][dL]L[Dab][Dab]T; lactam 4-C) | 217 ± 11.2 (≈ 190 µM) | 0.03 (≈ 0.0263 µM) | 0.5 (≈ 0.438 µM) | 0.03 (≈ 0.0263 µM) | 0.03 (≈ 0.0263 µM) | 0.03 (≈ 0.0263 µM) | 0.03 (≈ 0.0263 µM) | 0.03 (≈ 0.0263 µM) | 0.5 (≈ 0.438 µM)
CC(C)CCCCC(=O)N[C@@H](CCN)C(=O)N[C@H](C(=O)N[C@@H](CN)C(=O)N[C@H]1CCNC(=O)[C@H]([C@@H](C)O)NC(=O)[C@H](CCN)NC(=O)[C@H](CCN)NC(=O)[C@H](CC(C)C)NC(=O)[C@@H](Cc2ccccc2)NC(=O)[C@H](CCN)NC1=O)[C@@H](C)O [Compound 37, 6-methylheptanoyl-Dab-Thr-Dap-ring(4-10)[Dab-Dab-D-Phe-Leu-Dab-Dab-Thr]] ({Heptanoyl(6-Me)}-[Dab]T[Dap][Dab][Dab][dF]L[Dab][Dab]T; lactam 4-C) | 318 ± 10.2 (≈ 270 µM) | 0.03 (≈ 0.0255 µM) | 0.25 (≈ 0.213 µM) | 0.03 (≈ 0.0255 µM) | 0.03 (≈ 0.0255 µM) | 0.03 (≈ 0.0255 µM) | 0.03 (≈ 0.0255 µM) | 0.03 (≈ 0.0255 µM) | 0.03 (≈ 0.0255 µM)
